Reference: article PMC7029851, “Antibacterial activity of novel dual bacterial DNA type II topoisomerase inhibitors” (PLoS ONE, 2020)
pIC50: −log10 of the molar value. Converted amounts (≈) assume the structure as drawn. Read-outs that look alike come from different tables or passages of the source.

What was measured:
S. aureus ATCC BAA-1720 = experiment: Time-kill assay; assay type: cell-based, Staphylococcus aureus; settings: for Bactericidal activity in time-kill (reduction of 3 log10 CFU/ml): 1× to 4× MIC, over 24 hours
Procedure: (§1) Time-kill experiments were performed according to the procedure reported by Knapp. […] A drug-free control was included in each experiment. The bacterial cultures were standardized to obtain an initial inoculum that ranged from 5×10^5 to 5×10^6 CFU/ml. The cultures were incubated at 37°C in a shaking bath. At 0, 2, 4, 8 and 24-hour intervals, viable counts were performed by spotting (in triplicate) 10 μl aliquots of suitable dilutions of the cultures onto Mueller-Hinton agar (MHA, Oxoid, Basingstoke, UK) plates. After incubation at 37°C for 24 hours, the bactericidal activity, namely, the ability to reduce the initial inoculum by 3 log10 CFU/ml, was assessed for each tested concentration over time.

S. aureus ATCC 29213 [1] = experiment: Time-kill assay; assay type: cell-based, Staphylococcus aureus; settings: for Bactericidal activity in time-kill (reduction of 3 log10 CFU/ml): 1× to 4× MIC (compound 1 also 8× and 16× MIC), over 24 hours
Procedure: as §1

S. aureus ATCC 29213 [2] = experiment: Minimal bactericidal concentration; assay type: cell-based, Staphylococcus aureus; settings: for MBC: Staphylococcus aureus, ATCC29213, ≥99.9% reduction of inoculum
Procedure: (§2) Minimal bactericidal concentrations (MBCs) were determined according to the procedure described by Knapp. Viable counts were performed after plates were incubated at 37°C for 24 hours. The MBC was defined as the lowest concentration that reduced the viability of the initial bacterial inoculum by ≥99.9%.

S. aureus BAA-1720 = experiment: Minimal bactericidal concentration; assay type: cell-based, Staphylococcus aureus; settings: for MBC: Staphylococcus aureus, BAA1720, ≥99.9% reduction of inoculum
Procedure: as §2

S. aureus ATCC 29213 [3] = assay type: cell-based, Staphylococcus aureus
E. coli ATCC 25922 = experiment: Minimal bactericidal concentration; assay type: cell-based, Escherichia coli; settings: for MBC: Escherichia coli, ATCC25922, ≥99.9% reduction of inoculum
Procedure: as §2

[4] = tested on: E. coli clinical isolates (n = 36); experiment: MIC, multidrug-resistant clinical isolates; assay type: cell-based, Escherichia coli; settings: Escherichia coli, E. coli MDR clinical isolates (n = 36); for MIC50: read-out: MIC50; for MIC90: read-out: MIC90
Procedure: (§3) The bacterial reference strains used in this study were purchased from ATCC (American Type Culture Collection) via LGC Standards (Middlesex, UK). […] Clinical MDR isolates were provided by Aptuit, the IHMA Europa Sàrl repository (Epalinges, Switzerland) and the Statens Serum Institute (Copenhagen, Denmark).
(§4) MICs were determined by the broth microdilution method (the agar dilution method was used only for N. gonorrhoeae) according to CLSI guidelines.
(§5) The results obtained using clinical isolates are reported as MIC50 and MIC90 values.

A. baumannii ATCC 19606 = experiment: MIC, broth microdilution; assay type: cell-based; settings: Acinetobacter baumannii, ATCC19606; A. baumannii ATCC 19606, ciprofloxacin-susceptible
Procedure: as §4

A. baumannii APV00473 = experiment: MIC, broth microdilution; assay type: cell-based; settings: Acinetobacter baumannii; A. baumannii APV00473, ciprofloxacin-resistant
Procedure: as §4

S. pyogenes APV00083 = experiment: MIC, broth microdilution; assay type: cell-based; settings: Streptococcus pyogenes; S. pyogenes APV00083, ciprofloxacin-susceptible
Procedure: as §4

S. pyogenes APV00074 = experiment: MIC, broth microdilution; assay type: cell-based; settings: Streptococcus pyogenes; S. pyogenes APV00074, ciprofloxacin-susceptible
Procedure: as §4

CYP2C19 = CYP2C19 (Homo sapiens, UniProt P33261); experiment: Inhibition of P450 isoenzymes; assay type: in vitro ADME
CYP2C19, sequence (P33261 whole entry): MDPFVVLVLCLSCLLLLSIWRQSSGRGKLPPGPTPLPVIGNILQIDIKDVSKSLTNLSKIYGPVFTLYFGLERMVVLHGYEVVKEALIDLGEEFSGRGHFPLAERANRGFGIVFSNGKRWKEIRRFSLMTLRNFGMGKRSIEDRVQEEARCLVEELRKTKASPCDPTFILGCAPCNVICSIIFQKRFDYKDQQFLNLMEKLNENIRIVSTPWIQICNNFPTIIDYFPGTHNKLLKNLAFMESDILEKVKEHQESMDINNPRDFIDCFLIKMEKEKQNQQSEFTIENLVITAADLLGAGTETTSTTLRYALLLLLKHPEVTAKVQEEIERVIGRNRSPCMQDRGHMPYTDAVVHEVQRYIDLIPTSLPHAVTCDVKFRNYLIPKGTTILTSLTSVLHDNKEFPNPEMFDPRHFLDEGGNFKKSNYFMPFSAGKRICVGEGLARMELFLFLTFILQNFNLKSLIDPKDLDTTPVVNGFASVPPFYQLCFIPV
Source text: (§6) Inhibition of P450 isoenzymes.

[5] = tested on: CYP1A, CYP2B6, CYP2C8, CYP2C9, CYP2D6 and CYP3A4; experiment: Inhibition of P450 isoenzymes; assay type: in vitro ADME; settings: human, read-out: % inhibition of CYP450 isoenzymes other than CYP2C19
Source text: as §6

[6] = tested on: HepG2 mammalian cell line; experiment: Cytotoxicity assay (CellTiter-Blue); assay type: cell-based; settings: Homo sapiens, HepG2, 24 hours of incubation, read-out: IC50 mammalian cell viability; for IC50: same value in μg/ml
Procedure: Cytotoxicity assay. Cytotoxicity of compounds 1 and 2 was assessed, after 24 hours of incubation in EMEM containing 10% fetal bovine serum, HepG2 mammalian cell line viability was evaluated using CellTiter-Blue Cell Viability Assay (Promega, WI, USA) according to the manufacturer’s instructions. Concentration-response curves were obtained by non-linear regression analysis using the GraphPad PRISM 6 software.

C. difficile ATCC 700057 = experiment: MIC, broth microdilution; assay type: cell-based, Clostridium difficile; settings: Clostridioides difficile, ATCC700057
Procedure: MICs were determined by the broth microdilution method (the agar dilution method was used only for N. gonorrhoeae) according to CLSI guidelines. […] The MIC values of antibiotics used in clinical practice were interpreted according to the susceptibility interpretive criteria reported in the appropriate CLSI Tables (M100-S25, CLSI, 2015).

[7] = tested on: A. baumannii clinical isolates (n = 10); experiment: microbe, parasite or virus in culture; assay type: cell-based, Acinetobacter baumannii; settings: for MIC50 / MIC90: Acinetobacter baumannii
Procedure: as §3, §4, §5

[8] = tested on: C. difficile clinical isolates (n = 21); experiment: MIC, multidrug-resistant clinical isolates; assay type: cell-based, Clostridium difficile; settings: Clostridioides difficile, C. difficile clinical isolates (n = 21); for MIC50: read-out: MIC50; for MIC90: read-out: MIC90; for MIC: read-out: MIC range
Procedure: as §3, §4, §5

[9] = tested on: S. aureus clinical isolates (n = 10); experiment: microbe, parasite or virus in culture; assay type: cell-based, Staphylococcus aureus; settings: for MIC50 / MIC90 / MIC range: S. aureus MDR clinical isolates (n = 10)
Procedure: as §3, §4, §5

[10] = tested on: H. influenzae AcrA- mutant; experiment: microbe, parasite or virus in culture; assay type: cell-based; settings: Haemophilus influenzae
In short: (§7)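 MICs against efflux-deficient mutant strains were determined by broth microdilution following CLSI guidelines.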

[11] = tested on: K. pneumoniae AcrAB- mutant; experiment: microbe, parasite or virus in culture; assay type: cell-based; settings: Klebsiella pneumoniae
In short: as §7

[12] = Staphylococcus aureus, MRSA, S. aureus APV0063, MRSA
[13] = Staphylococcus aureus, MRSA, S. aureus APV0064, MRSA
[14] = Staphylococcus aureus, MRSA, S. aureus APV0065, MRSA
[15] = Staphylococcus aureus, S. aureus APV00045, M (macrolide resistance)
[16] = Staphylococcus aureus, S. aureus APV0048, MLSi
[17] = Staphylococcus aureus, S. aureus APV0049, MLSi
[18] = Staphylococcus aureus, S. aureus APV0052, MLSc
[19] = Staphylococcus aureus, S. aureus APV0053, MLSc
[20] = Staphylococcus aureus, S. aureus APV00280, M (macrolide resistance)
[21] = Staphylococcus aureus, S. aureus APV00281, M (macrolide resistance)
[22] = Staphylococcus aureus, read-out: MIC50
[23] = Staphylococcus aureus, read-out: MIC90

Compound: O=C1COc2ncc(F)cc2N1[C@H]1CC[C@H](NCc2cc3c(=O)oc4ccc(F)cc4c3[nH]2)CC1 [Compound 1, 8-fluoro-2-({[trans-4-(7-fluoro-2-oxo-2,3-dihydro-1H-pyrido[2,3-b][1,4]oxazin-1-yl)cyclohexyl]amino}methyl)[1]benzopyrano[4,3-b]pyrrol-4(1H)-one]
- Bactericidal activity in time-kill (reduction of 3 log10 CFU/ml) (S. aureus ATCC BAA-1720): bactericidal effect
- Concentration with bactericidal activity in time-kill (S. aureus ATCC BAA-1720; 4× MIC, after a 24 hour incubation): 2 µg/mL
- Bactericidal activity in time-kill (reduction of 3 log10 CFU/ml) (S. aureus ATCC 29213 [1]): bactericidal effect
- Bactericidal activity in time-kill (S. aureus ATCC 29213 [1]; 8× and 16× MIC, after 24 hour incubation): effective
- Bactericidal activity in time-kill (S. aureus ATCC 29213 [1]; concentrations up to 4× MIC): no bactericidal activity
- MBC/MIC (S. aureus ATCC 29213 [2]): 16
- MBC (S. aureus ATCC 29213 [2]): 4 µg/mL (≈ 8.33 µM)
- MBC/MIC (S. aureus BAA-1720): 2
- MBC (S. aureus BAA-1720): 1 µg/mL (≈ 2.08 µM)
- In vitro frequency of resistant mutants (S. aureus ATCC 29213 [3]; S. aureus ATCC 29213, 2×MIC): TNTC
- In vitro frequency of resistant mutants (S. aureus ATCC 29213 [3]; S. aureus ATCC 29213, 4×MIC): 1.4×10^−7
- MBC/MIC (E. coli ATCC 25922): 2
- MBC (E. coli ATCC 25922): 1 µg/mL (≈ 2.08 µM)
- MIC [4]: 0.25 to 16 µg/mL (≈ 0.52 to 33.3 µM)
- MIC50 [4]: 1 µg/mL (≈ 2.08 µM)
- MIC90 [4]: 1 µg/mL (≈ 2.08 µM)
- MIC (A. baumannii ATCC 19606): ≤ 0.06 µg/mL
- MIC (A. baumannii APV00473): ≤ 0.06 µg/mL
- MIC (S. pyogenes APV00083): 1 µg/mL (≈ 2.08 µM)
- MIC (S. pyogenes APV00074): 0.5 µg/mL (≈ 1.04 µM)
- inhibition at 10 µM (CYP2C19): 52%
- inhibition at 10 µM [5]: ≤ 35%
- pIC50 [6]: 5.05
- IC50 [6]: 4 µg/mL
- MIC (C. difficile ATCC 700057): 1 µg/mL (≈ 2.08 µM)
- MIC range [7]: ≤0.06 to 0.12 µg/mL
- MIC50 [7]: 0.12 µg/mL (≈ 0.25 µM)
- MIC90 [7]: 0.12 µg/mL (≈ 0.25 µM)
- MIC50 [8]: 1 µg/mL (≈ 2.08 µM)
- MIC90 [8]: 1 µg/mL (≈ 2.08 µM)
- MIC [8]: 0.25 to 2 µg/mL (≈ 0.52 to 4.16 µM)
- MIC50 [9]: 0.125 µg/mL (≈ 0.26 µM)
- MIC90 [9]: 0.5 µg/mL (≈ 1.04 µM)
- MIC range [9]: 0.12 to 0.5 µg/mL
- MIC [9, 12]: 0.12 µg/mL (≈ 0.25 µM)
- MIC [9, 13]: 0.12 µg/mL (≈ 0.25 µM)
- MIC [9, 14]: 0.12 µg/mL (≈ 0.25 µM)
- MIC [9, 15]: 0.5 µg/mL (≈ 1.04 µM)
- MIC [9, 16]: 0.25 µg/mL (≈ 0.52 µM)
- MIC [9, 17]: 0.5 µg/mL (≈ 1.04 µM)
- MIC [9, 18]: 0.5 µg/mL (≈ 1.04 µM)
- MIC [9, 19]: 0.25 µg/mL (≈ 0.52 µM)
- MIC [9, 20]: 0.12 µg/mL (≈ 0.25 µM)
- MIC [9, 21]: 0.12 µg/mL (≈ 0.25 µM)
- MIC50 [9, 22]: 0.12 µg/mL (≈ 0.25 µM)
- MIC90 [9, 23]: 0.5 µg/mL (≈ 1.04 µM)
- MIC [10]: ≤ 0.016 µg/mL
- MIC [11]: 0.03 µg/mL (≈ 0.0624 µM)

Compound: Cl.N#Cc1ccc2ccc(=O)n([C@H]3CC[C@H](NCc4cc5c(=O)oc6ccc(F)cc6c5[nH]4)CC3)c2c1 [Compound 2, 1-(trans-4-{[(8-fluoro-4-oxo-1,4-dihydro[1]benzopyrano[4,3-b]pyrrol-2-yl)methyl]amino}cyclohexyl)-2-oxo-1,2-dihydroquinoline-7-carbonitrile hydrochloride]
- Bactericidal activity in time-kill (reduction of 3 log10 CFU/ml) (S. aureus ATCC BAA-1720): no bactericidal activity
- Bactericidal activity in time-kill (reduction of 3 log10 CFU/ml) (S. aureus ATCC 29213 [1]): no bactericidal activity
- MBC/MIC (S. aureus ATCC 29213 [2]): 16
- MBC (S. aureus ATCC 29213 [2]): 0.5 µg/mL
- MBC/MIC (S. aureus ATCC 29213 [2]; listed as compound 2): ≥ 16
- MBC/MIC (S. aureus BAA-1720): 125
- MBC (S. aureus BAA-1720): 2 µg/mL
- MBC/MIC (S. aureus BAA-1720; listed as compound 2): ≥ 16
- In vitro frequency of resistant mutants (S. aureus ATCC 29213 [3]; S. aureus ATCC 29213, 2×MIC): 6.7×10^−7
- MBC/MIC (E. coli ATCC 25922): 2
- MBC (E. coli ATCC 25922): 1 µg/mL
- MIC [4]: 0.5 to 4 µg/mL
- MIC50 [4]: 1 µg/mL
- MIC90 [4]: 2 µg/mL
- MIC (A. baumannii ATCC 19606): 0.12 µg/mL
- MIC (A. baumannii APV00473): 0.5 µg/mL
- MIC (S. pyogenes APV00083): ≤ 0.06 µg/mL
- MIC (S. pyogenes APV00074): ≤ 0.06 µg/mL
- inhibition at 10 µM (CYP2C19): 69%
- inhibition at 10 µM [5]: ≤ 35%
- pIC50 [6]: < 3.52
- IC50 [6]: > 145 µg/mL
- MIC (C. difficile ATCC 700057): 0.25 µg/mL
- MIC range [7]: ≤0.06 to 0.12 µg/mL
- MIC50 [7]: ≤ 0.06 µg/mL
- MIC90 [7]: 0.12 µg/mL
- MIC50 [8]: 0.12 µg/mL
- MIC90 [8]: 0.25 µg/mL
- MIC [8]: 0.06 to 0.25 µg/mL
- MIC50 [9]: ≤ 0.06 µg/mL
- MIC90 [9]: ≤ 0.06 µg/mL
- MIC range [9]: ≤0.06 µg/mL
- MIC [9, 12]: ≤ 0.06 µg/mL
- MIC [9, 13]: ≤ 0.06 µg/mL
- MIC [9, 14]: ≤ 0.06 µg/mL
- MIC [9, 15]: ≤ 0.06 µg/mL
- MIC [9, 16]: ≤ 0.06 µg/mL
- MIC [9, 17]: ≤ 0.06 µg/mL
- MIC [9, 18]: ≤ 0.06 µg/mL
- MIC [9, 19]: ≤ 0.06 µg/mL
- MIC [9, 20]: ≤ 0.06 µg/mL
- MIC [9, 21]: ≤ 0.06 µg/mL
- MIC50 [9, 22]: ≤ 0.06 µg/mL
- MIC90 [9, 23]: ≤ 0.06 µg/mL
- MIC [10]: ≤ 0.016 µg/mL
- MIC [11]: ≤ 0.016 µg/mL
